Test results reported in PubChem BioAssay AID330 (DTP/NCI, 2004).
Values joined by “and” are separate entries in the source; they are usually repeats but may differ in a detail not shown here. Equal entries are not always repeated. Toxic doses and inconclusive results are not listed. Rule for the calls: active = survival T/C of 150% or more; inactive = T/C below 125% in these data.

System: P388 leukemia ip, CD2F1 mice, survival T/C
Test: NCI In Vivo Anticancer Drug Screen. Data for tumor model P388 Leukemia (intraperitoneal) in CD2F1 (CDF1) mice
Details: endpoint: median survival time, higher = longer survival
In short: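 Mice carrying the transplanted tumor received test compound or vehicle. Survival was recorded in each group, and the value is the treated-group measurement divided by that of the vehicle-treated control group.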

[1] = dose: 60.0 mg/kg/injection, schedule: Q01DX005 (ip), vehicle: Klucel (hydroxypropylcellulose) (HPC)
[2] = dose: 120.0 mg/kg/injection, schedule: Q01DX005 (ip), vehicle: Klucel (hydroxypropylcellulose) (HPC)
[3] = dose: 50.0 mg/kg/injection, schedule: Q04DX003 (ip), vehicle: saline with Tween-80
[4] = dose: 100.0 mg/kg/injection, schedule: Q04DX003 (ip), vehicle: saline with Tween-80
[5] = dose: 25.0 mg/kg/injection, schedule: Q01DX009 (ip), vehicle: saline
[6] = dose: 50.0 mg/kg/injection, schedule: Q01DX009 (ip), vehicle: saline with Tween-80
[7] = dose: 100.0 mg/kg/injection, schedule: Q01DX009 (ip), vehicle: saline with Tween-80
[8] = dose: 200.0 mg/kg/injection, schedule: Q01DX009 (ip), vehicle: saline with Tween-80
[9] = dose: 25.0 mg/kg/injection, schedule: Q04DX003 (ip), vehicle: saline
[10] = dose: 50.0 mg/kg/injection, schedule: Q04DX003 (ip), vehicle: saline
[11] = dose: 100.0 mg/kg/injection, schedule: Q04DX003 (ip), vehicle: saline
[12] = dose: 200.0 mg/kg/injection, schedule: Q04DX003 (ip), vehicle: saline
[13] = dose: 12.5 mg/kg/injection, schedule: Q01DX009 (ip), vehicle: saline with Tween-80
[14] = dose: 25.0 mg/kg/injection, schedule: Q01DX009 (ip), vehicle: saline with Tween-80
[15] = dose: 50.0 mg/kg/injection, schedule: Q01DX005 (ip), vehicle: Klucel (hydroxypropylcellulose) (HPC)
[16] = dose: 100.0 mg/kg/injection, schedule: Q01DX005 (ip), vehicle: Klucel (hydroxypropylcellulose) (HPC)
[17] = dose: 12.5 mg/kg/injection, schedule: Q04DX002 (ip), vehicle: saline
[18] = dose: 25.0 mg/kg/injection, schedule: Q04DX002 (ip), vehicle: saline
[19] = dose: 50.0 mg/kg/injection, schedule: Q01DX005 (ip), vehicle: saline with Tween-80
[20] = dose: 100.0 mg/kg/injection, schedule: Q01DX005 (ip), vehicle: saline with Tween-80
[21] = dose: 200.0 mg/kg/injection, schedule: Q01DX005 (ip), vehicle: saline with Tween-80

Measured: T/C

CCC(C)C1SCC(=O)N1c1nncs1 (stereo unspecified)
inactive: dose: 60.0 mg/kg/injection, schedule: Q01DX005 (ip), vehicle: saline with Tween-80 104 % of control | dose: 120.0 mg/kg/injection, schedule: Q01DX005 (ip), vehicle: saline with Tween-80 100 % of control | dose: 240.0 mg/kg/injection, schedule: Q01DX005 (ip), vehicle: saline with Tween-80 107 % of control

COc1ccc(-c2coc3c4c(ccc3c2=O)OCO4)cc1OC
inactive: dose: 9.75 mg/kg/injection, schedule: Q01DX005 (ip), vehicle: Klucel (hydroxypropylcellulose) (HPC) 94 % of control | dose: 19.5 mg/kg/injection, schedule: Q01DX005 (ip), vehicle: Klucel (hydroxypropylcellulose) (HPC) 94 % of control | dose: 39.0 mg/kg/injection, schedule: Q01DX005 (ip), vehicle: Klucel (hydroxypropylcellulose) (HPC) 87 % of control | dose: 78.0 mg/kg/injection, schedule: Q01DX005 (ip), vehicle: Klucel (hydroxypropylcellulose) (HPC) 86 % of control

CN(C)c1nc(=O)c2cc(Br)ccc2o1
inactive: [1] 96 % of control | [2] 100 % of control

CC(C)c1ccc(C(O)C2CC2)cc1 (stereo unspecified)
inactive: [3] 109 % of control | [4] 95 % of control

CSc1nc2ccc(CN3C(=O)c4ccccc4C3=O)cc2s1
inactive: dose: 50.0 mg/kg/injection, schedule: Q01DX009 (ip), vehicle: Klucel (hydroxypropylcellulose) (HPC) 88 % of control | dose: 100.0 mg/kg/injection, schedule: Q01DX009 (ip), vehicle: Klucel (hydroxypropylcellulose) (HPC) 98 % of control | dose: 200.0 mg/kg/injection, schedule: Q01DX009 (ip), vehicle: Klucel (hydroxypropylcellulose) (HPC) 91 % of control

COc1cc(C=Nc2cccc(C(=O)O)c2)ccc1N(CCCl)CCCl
active: [3] 150 % of control | dose: 66.0 mg/kg/injection, schedule: Q04DX003 (ip), vehicle: saline with Tween-80 272 % of control | [4] 181 % of control
inactive: [5] 122 % of control

CNC(=O)NC1NC(=O)N(C)C1=O (stereo unspecified)
inactive: [6] 100 % of control | [7] 99 % of control | [8] 100 % of control

COC(=O)C1=C(N2CCCC2)C2c3ccccc3SC12C(=O)OC (stereo unspecified)
inactive: [1] 104 % of control | [2] 98 % of control | dose: 240.0 mg/kg/injection, schedule: Q01DX005 (ip), vehicle: Klucel (hydroxypropylcellulose) (HPC) 94 % of control

Cc1ccccc1CS
inactive: [6] 113 % of control | [7] 113 % of control | [8] 113 % of control

O=C1CC(C(Cl)(Cl)Cl)O1 (stereo unspecified)
inactive: [9] 97 % of control | [10] 97 % of control | [11] 99 % of control | [12] 99 % of control

CCCN(CCC)C(=O)[S-].CCCN(CCC)C(=O)[S-].[Ni+2]
inactive: [13] 90 % of control | [14] 109 % of control

CC(=O)O/N=C/c1ccncc1
inactive: [9] 108 % of control | [10] 101 % of control | [11] 107 % of control | [12] 109 % of control | dose: 400.0 mg/kg/injection, schedule: Q04DX003 (ip), vehicle: saline 117 % of control

CN(C)C(=O)Sc1nnc(C(C)(C)C)o1
inactive: dose: 25.0 mg/kg/injection, schedule: Q01DX005 (ip), vehicle: Klucel (hydroxypropylcellulose) (HPC) 100 % of control | [15] 106 % of control | [16] 106 % of control

O=C(Nc1ccccc1)N1CC2(CN1)CNN(C(=O)Nc1ccccc1)C2
inactive: dose: 50.0 mg/kg/injection, schedule: Q01DX001 (ip), vehicle: Klucel (hydroxypropylcellulose) (HPC) 103 % of control | dose: 100.0 mg/kg/injection, schedule: Q01DX001 (ip), vehicle: Klucel (hydroxypropylcellulose) (HPC) 100 % of control | dose: 200.0 mg/kg/injection, schedule: Q01DX001 (ip), vehicle: Klucel (hydroxypropylcellulose) (HPC) 91 % of control

CN1C(c2ccncc2)=NCC12CCCCC2
inactive: dose: 6.25 mg/kg/injection, schedule: Q01DX005 (ip), vehicle: saline 97 % of control | dose: 12.5 mg/kg/injection, schedule: Q01DX005 (ip), vehicle: saline 100 % of control | [17] 106 % of control | dose: 25.0 mg/kg/injection, schedule: Q01DX005 (ip), vehicle: saline 95 % of control | [18] 106 % of control

Cn1cc2c(=O)n(C)ncc2n1
inactive: dose: 60.0 mg/kg/injection, schedule: Q01DX005 (ip), vehicle: saline 100 % of control | dose: 120.0 mg/kg/injection, schedule: Q01DX005 (ip), vehicle: saline 109 % of control | dose: 240.0 mg/kg/injection, schedule: Q01DX005 (ip), vehicle: saline 100 % of control

C=CCn1cc2c3c(cccc31)C1CC(C)CN(C)C1C2 (stereo unspecified)
inactive: [19] 99 % of control | [20] 111 % of control

CCOC1(C)OC2OC(COC(C)=O)C(OC(C)=O)C(OC(N)=O)C2O1 (stereo unspecified)
inactive: [19] 97 % of control | [20] 92 % of control | [21] 92 % of control

C/C(=C\c1cc2cc(C(=N)N)ccc2o1)c1cc2cc(C(=N)N)ccc2o1
active: dose: 400.0 mg/kg/injection, schedule: Q04DX002 (ip), vehicle: saline 159 % of control

Cc1c(C=[N+]2CCCCC2)c2ccccc2n1C
inactive: dose: 6.25 mg/kg/injection, schedule: Q01DX009 (ip), vehicle: saline with Tween-80 100 % of control | [13] 109 % of control | [14] 109 % of control and 120 % of control | [6] 104 % of control and 118 % of control | [7] 103 % of control

N=C(N)c1ccc(OCCCCCCOc2ccc(C(=N)N)cc2I)cc1
inactive: dose: 3.12 mg/kg/injection, schedule: Q01DX005 (ip), vehicle: Klucel (hydroxypropylcellulose) (HPC) 97 % of control | dose: 6.25 mg/kg/injection, schedule: Q01DX005 (ip), vehicle: Klucel (hydroxypropylcellulose) (HPC) 106 % of control | dose: 12.5 mg/kg/injection, schedule: Q01DX005 (ip), vehicle: Klucel (hydroxypropylcellulose) (HPC) 107 % of control and 97 % of control

C=C[Se](=C(C(=O)c1ccccc1)C(=O)c1ccccc1)c1ccccc1 (stereo unspecified)
inactive: dose: 6.25 mg/kg/injection, schedule: Q01DX009 (ip), vehicle: saline 96 % of control | dose: 12.5 mg/kg/injection, schedule: Q01DX009 (ip), vehicle: saline 103 % of control | [5] 99 % of control | dose: 50.0 mg/kg/injection, schedule: Q01DX009 (ip), vehicle: saline 107 % of control | dose: 100.0 mg/kg/injection, schedule: Q01DX009 (ip), vehicle: saline 113 % of control | dose: 200.0 mg/kg/injection, schedule: Q01DX009 (ip), vehicle: saline 113 % of control

CC1CCC2CC(C3CCCC[N-]3)[N-]C(N)C2C1.CC1CCC2CC(C3CCCC[N-]3)[N-]C(N)C2C1.O=[N+]([O-])O.[Cu+] (stereo unspecified)
inactive: [17] 97 % of control | dose: 12.5 mg/kg/injection, schedule: Q04DX002 (ip), vehicle: suspension in saline 100 % of control | [18] 104 % of control | dose: 25.0 mg/kg/injection, schedule: Q04DX002 (ip), vehicle: suspension in saline 104 % of control and 118 % of control | dose: 50.0 mg/kg/injection, schedule: Q04DX002 (ip), vehicle: suspension in saline 111 % of control and 114 % of control | dose: 100.0 mg/kg/injection, schedule: Q04DX002 (ip), vehicle: suspension in saline 103 % of control and 105 % of control and 120 % of control

Cc1cnc(N)c(C(=O)O)n1
inactive: [15] 102 % of control | [16] 90 % of control

ICC1Cc2ccccc2O1 (stereo unspecified)
inactive: [6] 99 % of control | [7] 101 % of control | [8] 103 % of control

C=CCCc1c(OC)cccc1C1=NC(C)(C)CO1
inactive: [19] 106 % of control | [20] 102 % of control | [21] 100 % of control
